Laboratory results taken from patent US20230146870A1, “METHOD TO QUANTIFY AFFINITY AND SELECTIVITY OF SMALL MOLECULES FOR PROTEINS IN LIVING CELLS” (Ohio State Innovation Foundation, priority 2021, published 2023).

Assays:
[1] = target: T1, murine PKCβI-mVenus (Mus musculus, UniProt P68404); assay: FPCBA saturation binding, HEK293 cells expressing PKCβI-mVenus (Example 3)
T1 construct: fused on or other part: mVenus at the C-terminus
Excerpt: (§1) To investigate the potential for quantitative analysis of binding to PKCs expressed in cells, we evaluated whether 1-3 could readily achieve equilibrium, which is necessary for measurements of cellular equilibrium dissociation constants (Kd).

[2] = target: T2, PKCβI-mVenus (Mus musculus, UniProt P68404); assay: Confocal microscopy of translocation of PKCβI-mVenus in HEK293 cells; format: cell-based; settings: 2 μM, 2 h
T2 construct: we generated expression vectors for eight full-length mouse isozymes; expressed in transfected cells; host or cells: HEK293 (ATCC CRL-1573), transient transfection with CMV-PKC betaI-mVenus-N1
Procedure: FIGS. 36A-36D provide confocal and DIC micrographs of living HEK293 cells transiently transfected to express PKCβI-mVenus. […] Scale bars=10 microns.
This IRES vector was derived from a previously reported^52 variant encoding the somewhat less fluorescent protein Venus.
Living cells cultured on an 8-well chamber glass slide (Ibidi μ-Slide, 300 μL, 100,000 cells/well) were imaged with an inverted Leica TCS SP8 confocal laser-scanning microscope (63× oil-immersion objective). Fluorescent probes were excited at 405 nm and mVenus was excited at 488 nm. Emitted photons were collected from 425-500 nm and 500-650 nm. For imaging, transiently transfected HEK293 cells in complete medium (10% FBS) were plated on the Ibidi μ-Slide for 16 h to promote adherence. Concentrated stock solutions of fluorescent probes in DMSO were serially diluted 500-fold in serum-free DMEM medium to afford 2× stock solutions (0.2% DMSO). Half of the cell culture medium (150 μL) was carefully removed by pipet and gently replaced with the 2× stock solution of the probe in serum-free medium (final [FBS]˜5%). Cells were treated with probes (2 μM) at 37° C. for 2 h before imaging by microscopy. Laser power and PMT gain settings were identical for all images and controls within a given experiment for accurate comparisons of cellular fluorescence.

[3] = target: native (untagged) murine PKCγ (Mus musculus, UniProt P63318); assay: FPCBA saturation binding of probe 1, native PKCγ (IRES-mVenus) in HEK293 cells
[4] = target: murine PKCη-mVenus (Mus musculus, UniProt P23298); assay: FPCBA saturation binding of probe 1, HEK293 cells expressing PKCη-mVenus (Example 3)
[5] = test system: HEK293 cells expressing PKCβI-mVenus; assay: Kinetics of uptake of probes in HEK293 cells transiently transfected with PKCβI-mVenus; format: cell-based; settings: probe 1 μM, room temperature, BIM1 2 μM, 4% FBS
Procedure: Cells were treated with probes and analyzed by flow cytometry. […] [BIM1]=2 μM. [FBS]=4%.
as §1
The cells were re-suspended in fresh reduced serum media lacking antibiotics (4% FBS) at a cell density of ˜500,000 cells per mL and were added to a 96-well plate (100 μL per well). […] Fluorescent probes were prepared as absorbance-normalized 1 mM DMSO stock solutions and diluted into reduced serum DMEM media lacking antibiotics (4% FBS) to achieve a final concentration of the probe of 1 μM ([…]). [BIM1]=2 μM. After addition of probes, cells were analyzed at room temperature every 5 min as singletons. Living cells with the greatest green fluorescence from expression of mVenus (top 20%, transfected) and the lowest green fluorescence (bottom 20%, non-transfected) were gated to obtain median PB450 values of uptake of the fluorescent probes. For the slower kinetics of uptake of probe 3, cells were analyzed every 20 min in triplicate. These curves were fitted with a one-phase association model (GraphPad Prism 9) to determine t1/2 values.

[6] = target: murine PKCζ-mVenus (Mus musculus, UniProt Q02956); assay: FPCBA saturation binding of probe 1, HEK293 cells expressing PKCζ-mVenus (Example 3); settings: BIM1 2 μM, 2 h at 37° C., 4% FBS
[7] = target: native (untagged) murine PKCη (Mus musculus, UniProt P23298); assay: FPCBA saturation binding of probe 1, native PKCη (IRES-mVenus) in HEK293 cells
[8] = target: T3, mouse PKCβI-mVenus (Mus musculus, UniProt P68404); assay: Apparent cellular Kd by flow cytometry, HEK293 cells overexpressing PKCβI-mVenus (Example 2); format: binding
T3 construct: eight plasmids encoding full length mouse PKC isozymes fused to; expressed in transfected cells; host or cells: HEK293
Procedure: The apparent Kd values of these fluorescent probes were measured using different PKC isozymes (e.g., PKCβI, FIGS. 20A-20D). HEK293 cells were transfected to overexpress PKCβ-mVenus and treated with probes in the presence of verapamil (100 μM) as an inhibitor of efflux.

[9] = test system: Jurkat cells; assay: Cellular viability assay, Jurkat lymphocytes, 48 h, flow cytometry (Example 2); format: cell-based
Procedure: The impact of membrane transporters on the toxicity profile of 49 was also studied.
Jurkat lymphocytes were seeded into a 96-well plate in fresh complete medium at 2.5×10^5 cells/mL and 200 μL per well. All compounds were serial diluted in DMSO and added to complete media to achieve a 1:1000 dilution factor (0.10% DMSO in each well). […] The total cell-count for each well was determined by flow cytometry and staining with propidium iodide was used to identify populations of live cells (only dead cells are stained by PI). Counts of viable cells for each treatment, determined in triplicate, were used to generate dose-response curves. These curves were fitted with non-linear regression using an inhibitor vs. response variable slope […] model (GraphPad Prism 9) to determine IC50 values.

[10] = target: PKCζ (Homo sapiens, UniProt Q05513); settings: radiolabeled PDBu at 4° C.; cited from earlier work
[11] = target: PKCγ (Homo sapiens, UniProt P05129); settings: radiolabeled PDBu at 4° C.; read-out: Biochemical Ki, PKCγ; cited from earlier work

T1 sequence (P68404 2-621 limits assumed): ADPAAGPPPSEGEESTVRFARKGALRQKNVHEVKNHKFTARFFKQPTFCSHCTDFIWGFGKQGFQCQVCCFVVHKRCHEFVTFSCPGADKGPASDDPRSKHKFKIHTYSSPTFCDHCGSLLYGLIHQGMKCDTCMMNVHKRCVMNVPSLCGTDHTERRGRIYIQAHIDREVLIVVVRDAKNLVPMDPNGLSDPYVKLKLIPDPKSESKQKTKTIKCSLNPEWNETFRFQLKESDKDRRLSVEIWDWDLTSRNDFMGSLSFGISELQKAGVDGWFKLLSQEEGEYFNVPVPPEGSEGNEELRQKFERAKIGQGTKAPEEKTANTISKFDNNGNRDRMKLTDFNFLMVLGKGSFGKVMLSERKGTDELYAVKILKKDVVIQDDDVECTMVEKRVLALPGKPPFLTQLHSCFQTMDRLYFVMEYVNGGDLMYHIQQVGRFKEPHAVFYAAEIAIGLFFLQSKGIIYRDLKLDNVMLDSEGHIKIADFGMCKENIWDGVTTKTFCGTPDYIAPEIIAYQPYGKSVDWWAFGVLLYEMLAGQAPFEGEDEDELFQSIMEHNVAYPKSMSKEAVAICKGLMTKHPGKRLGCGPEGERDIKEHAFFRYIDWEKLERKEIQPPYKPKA
Sequence of murine PKCζ-mVenus (Q02956 whole entry): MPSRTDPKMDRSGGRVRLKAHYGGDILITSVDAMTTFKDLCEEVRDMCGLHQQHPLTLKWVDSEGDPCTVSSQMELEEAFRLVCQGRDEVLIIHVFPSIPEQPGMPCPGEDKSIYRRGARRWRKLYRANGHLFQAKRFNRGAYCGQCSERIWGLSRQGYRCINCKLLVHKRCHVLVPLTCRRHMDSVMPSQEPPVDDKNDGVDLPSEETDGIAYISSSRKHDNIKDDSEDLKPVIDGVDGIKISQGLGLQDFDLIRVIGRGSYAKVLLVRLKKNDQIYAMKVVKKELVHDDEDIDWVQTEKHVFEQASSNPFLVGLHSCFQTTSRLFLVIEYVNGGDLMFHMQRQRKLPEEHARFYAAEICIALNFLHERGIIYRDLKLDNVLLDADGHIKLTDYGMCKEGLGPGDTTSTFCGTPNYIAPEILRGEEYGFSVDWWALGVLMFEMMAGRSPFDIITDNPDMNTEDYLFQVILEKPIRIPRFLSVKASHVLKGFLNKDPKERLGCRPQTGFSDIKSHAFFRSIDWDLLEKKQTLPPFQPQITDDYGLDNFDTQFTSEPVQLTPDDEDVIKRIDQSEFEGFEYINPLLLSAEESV
Sequence of native (untagged) murine PKCη (P23298 whole entry): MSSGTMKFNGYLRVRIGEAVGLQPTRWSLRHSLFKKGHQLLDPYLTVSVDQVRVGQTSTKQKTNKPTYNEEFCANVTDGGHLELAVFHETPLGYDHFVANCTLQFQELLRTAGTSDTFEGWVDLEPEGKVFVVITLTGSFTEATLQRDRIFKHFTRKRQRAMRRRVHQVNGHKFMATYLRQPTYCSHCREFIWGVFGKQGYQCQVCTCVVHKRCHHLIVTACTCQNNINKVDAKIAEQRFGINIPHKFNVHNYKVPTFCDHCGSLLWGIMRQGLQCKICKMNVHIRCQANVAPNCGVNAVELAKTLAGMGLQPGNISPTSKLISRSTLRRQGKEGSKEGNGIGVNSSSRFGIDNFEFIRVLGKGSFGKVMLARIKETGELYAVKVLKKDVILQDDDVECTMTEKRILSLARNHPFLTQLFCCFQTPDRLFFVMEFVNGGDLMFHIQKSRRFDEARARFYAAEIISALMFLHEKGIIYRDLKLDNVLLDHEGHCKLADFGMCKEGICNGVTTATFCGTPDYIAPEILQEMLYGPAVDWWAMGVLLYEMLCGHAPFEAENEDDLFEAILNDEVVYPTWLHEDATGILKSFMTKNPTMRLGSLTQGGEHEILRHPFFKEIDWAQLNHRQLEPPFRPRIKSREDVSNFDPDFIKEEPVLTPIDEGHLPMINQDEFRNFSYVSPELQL
Sequence of murine PKCη-mVenus (P23298 whole entry): as above
T3 sequence (P68404 whole entry, the tested form may be a part): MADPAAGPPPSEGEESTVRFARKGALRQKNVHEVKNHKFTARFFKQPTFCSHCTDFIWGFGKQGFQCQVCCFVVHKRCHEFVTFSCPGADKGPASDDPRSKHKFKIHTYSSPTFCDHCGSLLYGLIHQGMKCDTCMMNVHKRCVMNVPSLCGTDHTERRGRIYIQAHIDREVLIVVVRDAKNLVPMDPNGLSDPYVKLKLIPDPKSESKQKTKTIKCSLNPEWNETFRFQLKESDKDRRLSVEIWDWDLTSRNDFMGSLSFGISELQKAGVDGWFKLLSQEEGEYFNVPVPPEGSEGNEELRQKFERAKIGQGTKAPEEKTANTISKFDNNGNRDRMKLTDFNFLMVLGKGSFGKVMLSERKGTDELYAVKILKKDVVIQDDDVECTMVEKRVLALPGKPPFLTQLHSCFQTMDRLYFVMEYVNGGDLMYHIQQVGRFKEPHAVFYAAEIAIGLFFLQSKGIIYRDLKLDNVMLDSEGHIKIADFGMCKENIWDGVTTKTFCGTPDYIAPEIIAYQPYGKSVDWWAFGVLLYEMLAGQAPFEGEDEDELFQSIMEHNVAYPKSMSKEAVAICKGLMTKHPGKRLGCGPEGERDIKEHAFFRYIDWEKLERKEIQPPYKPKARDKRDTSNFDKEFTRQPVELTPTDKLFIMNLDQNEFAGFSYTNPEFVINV
T2 sequence (P68404 whole entry): as the sequence (P68404 whole entry, the tested form may be a part) above
Sequence of PKCζ (Q05513 whole entry): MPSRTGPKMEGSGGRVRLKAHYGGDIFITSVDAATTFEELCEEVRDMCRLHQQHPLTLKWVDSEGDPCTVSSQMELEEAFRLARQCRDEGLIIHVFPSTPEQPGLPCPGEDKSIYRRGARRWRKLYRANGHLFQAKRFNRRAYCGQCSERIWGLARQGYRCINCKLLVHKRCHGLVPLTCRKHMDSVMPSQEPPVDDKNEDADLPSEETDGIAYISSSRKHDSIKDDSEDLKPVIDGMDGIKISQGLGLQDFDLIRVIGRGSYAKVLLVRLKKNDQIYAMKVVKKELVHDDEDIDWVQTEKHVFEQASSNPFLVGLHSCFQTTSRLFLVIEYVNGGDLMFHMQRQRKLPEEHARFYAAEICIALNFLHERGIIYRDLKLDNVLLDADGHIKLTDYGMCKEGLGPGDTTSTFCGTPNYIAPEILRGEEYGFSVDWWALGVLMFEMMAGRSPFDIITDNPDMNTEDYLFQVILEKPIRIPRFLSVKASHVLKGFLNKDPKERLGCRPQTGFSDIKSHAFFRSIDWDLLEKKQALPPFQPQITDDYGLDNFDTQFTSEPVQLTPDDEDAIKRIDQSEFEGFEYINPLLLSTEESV

In the case of `CCCCCCN(CCCCCCCCCCCCNC(=O)c1cc2cc(F)c(O)c(F)c2oc1=O)C(=O)O[C@@]12[C@H](O)[C@@H](C)[C@@]3(O)[C@@H](C=C(CO)C[C@]4(O)C(=O)C(C)=C[C@@H]34)[C@@H]1C2(C)C` [probe 1, (1aR,1bS,4aR,7aS,7bS,8R,9R,9aS)-4a,7b,9-trihydroxy-3-(hydroxymethyl)-1,1,6,8-tetramethyl-5-oxo-1,1a,1b,4,4a,5,7a,7b,8,9-decahydro-9aH-cyclopropa[3,4]benzo[1,2-e]azulen-9a-yl (12-(6,8-difluoro-7-hydroxy-2-oxo-2H-chromene-3-carboxamido)dodecyl)(hexyl)carbamate], the “median blue fluorescence of cells expressing high levels of PKCβI-mVenus vs non-transfected cells” value ([1]; 1 at 1 μM, 2 h, BIM1 2 μM) is reported as “ca. 4 fold”, the Kd ([1]; BIM1 2 μM, 2 h at 37° C., 4% FBS, read-out: Cellular Kd for probe, PKCβI-mVenus) is reported as 200 nM and the “signal-to-background (S/B)” value ([1]; with BIM1, 1.25 μM probe) is reported as 2.9. The “improvement of apparent cellular affinity for PKCβI by BIM1” value ([1]; with vs without BIM1) was about 2 fold, the “translocation of PKCβI-mVenus” value [2] was “translocated to cellular membranes” and the Kd [3] was 211 ± 92 nM. The Kd [4] was 250 ± 36 nM, the “half-time (t1/2) of cellular uptake in transfected cells” value [5] was 4 min and the “Cellular Kd for probe, PKCζ-mVenus” value [6] was “No binding”. The Kd [7] was 177 nM, the Kd [8] was 190 nM and the “activity relative to 33” value [9] was over 20 fold. The IC50 ([9]; Homo sapiens, Jurkat, read-out: toxicity towards Jurkat cells, IC50) was 500 nM.

For `CCC/C=C/C=C/C(=O)O[C@H]1/C(=C/C(=O)OC)C[C@H]2C[C@H]([C@@H](C)O)OC(=O)C[C@H](O)C[C@@H]3C[C@H](OC(C)=O)C(C)(C)[C@](O)(C[C@@H]4C/C(=C/C(=O)OC)C[C@H](/C=C/C(C)(C)[C@]1(O)O2)O4)O3` [bryostatin 1], the “Biochemical Ki, PKCζ” value [10] is given as “No binding” and the Ki [11] is given as 2.2 nM.
